Results on 21 compounds are retold here after article PMC6017564, “Amaryllidaceae Alkaloids as Potential Glycogen Synthase Kinase-3β Inhibitors” (Molecules : A Journal of Synthetic Chemistry and Natural …, 2018).

Structures are written as SMILES.

For experiment [1], the target named is T1, GSK-3β (Homo sapiens, UniProt P49841).
T1 construct: gene GSK3B
As to the kind of experiment: biochemical. Also noted: Kinase-Glo luminescent ATP-consumption assay, human recombinant GSK-3beta, GSM peptide substrate, 1 uM ATP, 30 min 37 C. The procedure:
GSK-3β activity and inhibition were studied according to the luminescent method of Baki et al. using a Kinase-Glo reagent kit. The reaction was performed in 96-well white plates. Each well contained 10 µL of test compound (dissolved in DMSO) at 1 mM concentration and diluted in advance in an assay buffer (pH 7.5) containing 50 mM HEPES, 1 mM EDTA, 1 mM EGTA, and 15 mM magnesium acetate, to the desired concentration, 10 µL of ATP (1 µM final concentration), 10 µL of 100 µM GSM and 10 µL of GSK-3β (20 ng). Ten microliters of either buffer or SB-415286 solution (5 µM final concentration) was added instead of test compound solution in order to obtain the positive (maximum activity) and negative control (total inhibition), respectively. […] The mix was left to react at 37 °C for 30 min. Then the enzymatic reactions were stopped with 40 µL of Kinase-Glo reagent. Glow-type luminescence was recorded after 10 min. The activity is proportional to the difference of the total and consumed ATP. The inhibition activities were calculated on the basis of maximal activity, measured in the absence of inhibitor, and the maximal inhibition was measured in the presence of the reference compound. The IC50 values were calculated using the GraphPad Prism 4.0 program (GraphPad Software Inc., CA, USA). Kinase-Glo Kit was obtained from Promega (Promega Biotech Iberica, S.L., Madrid, Spain), and human recombinant GSK-3β and GSM substrate mimicking Glycogen Muscle Synthase from Merck Millipore (Darmstadt, Germany). Adenosine 5-triphosphate (ATP) disodium salt hydrate, ammonium acetate, ammonium hydroxide, 4-(2-hydroxyethyl)piperazine-1-ethanesulfonic acid (HEPES), ethylene glycol-bis(-aminoethylether)-N,N,N,N-tetraacetic acid tetrasodium salt (EGTA), ethylenediaminetetraacetic acid (EDTA), dimethyl sulfoxide (DMSO), magnesium acetate tetrahydrate, formic acid, and 3-[(3-chloro-4-hydroxyphenyl)amino]-4-(2-nitrophenyl)-1H-pyrrol-2,5-dione were purchased from Sigma-Aldrich (St. Louis, MO, USA). The GSK-3β selective inhibitor SB-415286 ([3-(3-chloro-4-hydroxyphenylamino)-4-(2-nitrophenyl)-1H-pyrrole-2,5-dione]) was purchased from Selleck Chemicals (Houston, TX, USA). Ultrapure water was obtained using a Purite LTD water purification system (Thame, UK). The experiments were carried out using a Victor X3 multimode plate reader (Perkin Elmer, MA, USA). The inhibitory activity of the compounds was first screened at a concentration of 50 µM (Table 1); a synthetic arylindolemaleimide derivative, SB-415286, was used as a positive standard.

Experiment [2] concerns the target T1, GSK-3β. As to the kind of experiment: Kinase-Glo luminescent kinase assay, single concentration […]. In kind it is biochemical. The following applies: read-out: % of Inhibition. A general note: Kinase-Glo reads ATP consumption through a luciferase reaction.
Experiment [3] deals with T1, GSK-3β. As to the kind of experiment: biochemical.

For orientation: inhibition means the share of the control response that was lost under treatment. The term IC50 denotes the concentration at which inhibition is half-maximal. High values mean lower potency, low ones higher potency.

T1 sequence (P49841 whole entry): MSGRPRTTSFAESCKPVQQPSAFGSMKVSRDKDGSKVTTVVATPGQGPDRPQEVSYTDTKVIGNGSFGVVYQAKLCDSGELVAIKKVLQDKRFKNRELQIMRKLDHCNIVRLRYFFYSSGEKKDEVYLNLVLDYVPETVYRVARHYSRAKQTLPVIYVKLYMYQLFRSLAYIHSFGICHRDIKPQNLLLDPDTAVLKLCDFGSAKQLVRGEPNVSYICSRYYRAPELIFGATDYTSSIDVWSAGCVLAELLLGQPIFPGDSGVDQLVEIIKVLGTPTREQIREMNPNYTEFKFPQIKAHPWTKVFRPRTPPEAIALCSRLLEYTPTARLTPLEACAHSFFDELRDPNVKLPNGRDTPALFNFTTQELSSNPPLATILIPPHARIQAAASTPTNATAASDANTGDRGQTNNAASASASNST

In the case of `CC(=O)O[C@H]1[C@H]2c3cc4c(cc3CN3CCC(=C[C@@H]1O)[C@H]23)OCO4` [1-O-Acetyllycorine (16)], the inhibition at 50 µM in experiment [1] is 49.9 ± 1.9%. Same read-out and setting: the figure for `COc1c2c(cc3c1OCO3)[C@]13C=C[C@H](OC)C[C@H]1N(C2)C[C@@H]3O` [Ambelline (7)] is 38 ± 0.8%; for `COc1c2c(cc3c1OCO3)[C@@]13CCN(C2)[C@@H]1C[C@@H](O)[C@@H]1O[C@@H]13` [Crinamidine (10)] it is 32.1 ± 7.9%; for `O[C@H]1C=C[C@@]23CCN(Cc4cc5c(cc42)OCO5)[C@@H]3C1` [Crinine (8)] it is 39.6 ± 5.4%. Still for that read-out and setting: the value for `COc1cc2c(cc1OC)[C@@H]1[C@H](O)[C@@H](OC)C=C3CCN(C2)[C@H]31` [Galanthine (17)] was 26.4 ± 7.7%.

On to `CO[C@@H]1C=C[C@@]23c4cc5c(cc4[C@H](O)N(C[C@@H]2O)[C@H]3C1)OCO5` [Haemanthidine (4)], for which the inhibition at 50 µM in experiment [1] was 33 ± 2.2%. In the case of `O[C@H]1C=C[C@@]23c4cc5c(cc4CN(C[C@@H]2O)[C@H]3C1)OCO5` [Hamayne (5)], the inhibition at 50 µM in experiment [1] was 33.9 ± 0.1%. Still for that read-out and setting: the figure for `CN1CCC2=C[C@H](O)[C@H]3OC(=O)c4cc5c(cc4[C@H]3[C@@H]21)OCO5` [Hippeastrine (21)] is 10.7 ± 2.5%. With `COc1cc2c(cc1OC)[C@@H](O)O[C@@H]1CC=C3CCN(C)[C@H]3[C@H]21` [Lycorenine (25)], the inhibition at 50 µM in experiment [1] is 47.6 ± 3.5%.

For the compound `O[C@H]1[C@H]2c3cc4c(cc3CN3CCC(=C[C@@H]1O)[C@H]23)OCO4` [Lycorine (15)], in experiment [1], the inhibition at 50 µM was found to be 32.9 ± 0.2%. Still for that read-out and setting: the figure for `COc1ccc2c3c1O[C@H]1CC(=O)C=C[C@@]31CCN(C)C2` [Narwedine (12)] is 37.7 ± 0.3%; for `COc1cc2c(cc1O)CN1CCC3=CC[C@@H](O)[C@@H]2[C@@H]31` [Norpluviine (19)] it is 45 ± 4.3%.

As to `CO[C@@H]1C=C[C@@]23c4cc5c(cc4CO[C@]2(O)CN(C)[C@H]3C1)OCO5` [Tazettine (20)], the inhibition at 50 µM in experiment [1] stood at 49.2 ± 0.3%. As to `COc1c2c(cc3c1OCO3)[C@@]13CCN(C2)[C@@H]1C[C@@H](OC)[C@@H]1O[C@@H]13` [Undulatine (9)], in experiment [1], the inhibition at 50 µM was found to be 43.3 ± 4%.

As to `CO[C@@H]1C=C[C@@]23c4cc5c(cc4CN(C[C@@H]2O)[C@H]3C1)OCO5` [compound 3, Haemanthamine], in experiment [2], the inhibition at 50 µM was determined as 52.4%.

In experiment [3], `O[C@@H]1CC=C2CCN3Cc4cc5c(cc4[C@H]1[C@@H]23)OCO5` [compound 14, Caranine] registered an IC50 of 30.8 µM. Besides, the inhibition at 50 µM in experiment [1] came to 61.8 ± 9.2%. For the compound `COc1cc2c(cc1OC)[C@H]1[C@H]3C(=CC[C@H]1OC2=O)CCN3C` [compound 22, Homolycorine], in experiment [2], the inhibition at 50 µM came to 54.4%. `COc1cc2c(cc1O)C1C(CC=C3CCN(C)C31)OC2=O` (stereo not drawn) [compound 23, 9-O-Demethylhomolycorine] had an IC50 in experiment [3] of 30 µM. Moreover, the inhibition at 50 µM in experiment [1] was 63.6 ± 1.3%. For `CN1CCC2=CCC3OC(=O)c4cc5c(cc4C3C21)OCO5` (stereo not drawn) [compound 24, Masonine], in that order: 27.8 µM and 66 ± 4%.

Regarding `CCOC1OC2CC=C3CCN(C)C3C2c2cc(OC)c(OC)cc21` (stereo not drawn) [compound 26, O-Ethyllycorenine], in experiment [2], the inhibition at 50 µM stood at 57.7%.

On to `CN1CCC2=CCC3OC(O)c4cc5c(cc4C3C21)OCO5` (stereo not drawn) [compound 27, Oduline], for which the inhibition at 50 µM in experiment [2] stood at 57.7%.
